Experimental findings from PubChem BioAssay (NCI) are described below.

Some test systems named below: A498 renal; A549 NSCLC; HOP-92 NSCLC; MCF7 breast; MOLT-4 leukemia; NCI/ADR-RES ovarian; SK-MEL-28 melanoma; U251 CNS.
Common to all, as to experiment: NCI-60 cell line screen, 48 h

Molecules are shown by their SMILES. Values joined by “and” are separate entries in the source; they are usually repeats but may differ in a detail not shown here. Equal entries are not always repeated.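 Briefly, cells in 96-well plates were exposed to five compound concentrations for 48 h, and endpoints were estimated by linear interpolation. GI50 is the concentration that inhibits growth by half. At the TGI there is no net growth.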

Regarding `CCCC(=O)Nc1cn(COC)c(C(=O)N2C[C@H]3C[C@@]34C2=CC(=O)c2[nH]cc(C)c24)n1`, the TGI in the assay on A498 renal is 17.9 µM; in the assay on A549 NSCLC it was 50 µM and > 100 µM; with HOP-92 NSCLC, 26.8 µM and 31.4 µM; in the assay with MCF7 breast it was 50 µM and > 100 µM; in the assay with NCI/ADR-RES ovarian, 15.8 µM and 43.6 µM; with SK-MEL-28 melanoma, 35.7 µM and > 100 µM. Moreover, the TGI in the assay with U251 CNS was 50 µM and > 100 µM. The GI50 in the assay with HOP-92 NSCLC was 5.12 µM; with MCF7 breast it was 3.53 µM; in the assay with MOLT-4 leukemia, 1.6 µM; in the assay on NCI/ADR-RES ovarian, 12 µM; in the assay with SK-MEL-28 melanoma it was 17.3 µM.
As for `COc1ccc(-c2cn(-c3cc(OC)c(OC)c(OC)c3)c(=O)n2-c2ccccc2)cc1`, the GI50 in the assay with A498 renal is over 100 µM; in the assay with A549 NSCLC it was over 100 µM; in the assay on HOP-92 NSCLC it was 11.6 µM; in the assay with MCF7 breast it was 86 µM; in the assay on MOLT-4 leukemia, over 100 µM; in the assay on NCI/ADR-RES ovarian it was 74.6 µM. In addition, the GI50 in the assay with SK-MEL-28 melanoma and with U251 CNS was over 100 µM throughout. In addition, the TGI in the assay on A498 renal was over 100 µM; in the assay with A549 NSCLC, over 100 µM; with HOP-92 NSCLC, 36.9 µM; in the assay on MCF7 breast, over 100 µM; in the assay on MOLT-4 leukemia, over 100 µM; in the assay on NCI/ADR-RES ovarian it was over 100 µM. The TGI in the assay on SK-MEL-28 melanoma and in the assay on U251 CNS was over 100 µM in each case.
For `CN1CCN(CCCOc2ccc3ncnc(Nc4ccc(Oc5cccc(F)c5)c(Cl)c4)c3c2)CC1`, the GI50 in the assay with A498 renal is 1.25 µM; with A549 NSCLC, 1.56 µM; in the assay on HOP-92 NSCLC, 0.907 µM; in the assay with MCF7 breast, 1.57 µM; in the assay with MOLT-4 leukemia, 1.76 µM; with NCI/ADR-RES ovarian, 1.83 µM. In addition, the figures for the GI50 in the assay on SK-MEL-28 melanoma and with U251 CNS were 1.7 µM and 1.56 µM, respectively. For the same compound, the TGI in the assay on A498 renal is 2.74 µM; with A549 NSCLC, 3.24 µM; in the assay on HOP-92 NSCLC, 2.26 µM; in the assay with MCF7 breast it was 3.31 µM; in the assay with MOLT-4 leukemia, 4.35 µM; in the assay on NCI/ADR-RES ovarian, 4.79 µM. Besides, the values for the TGI with SK-MEL-28 melanoma and with U251 CNS were 3.11 µM and 3.29 µM, respectively.
In the case of `NCCn1c2c(c3ccccc3c1=O)C(=O)c1ccccc1-2`, the GI50 was 0.476 µM with A498 renal; 0.626 µM in the assay on HOP-92 NSCLC; 0.292 µM in the assay on MCF7 breast; under 0.0378 µM in the assay on MOLT-4 leukemia; 0.647 µM with NCI/ADR-RES ovarian; 1.46 µM in the assay with SK-MEL-28 melanoma. For the same compound, the GI50 with U251 CNS was 0.544 µM. In addition, the TGI in the assay on A498 renal was found to be 5.49 µM; in the assay on A549 NSCLC, 0.676 µM; in the assay on HOP-92 NSCLC, 6.24 µM; with MCF7 breast it was 12.6 µM; in the assay on MOLT-4 leukemia, 0.095 µM; with NCI/ADR-RES ovarian, 3.3 µM. Besides, the TGI in the assay on SK-MEL-28 melanoma was 3.14 µM; with U251 CNS, 3.59 µM.
Regarding `O=C(Nc1nc2ccc(F)cc2s1)c1cccnc1Nc1ccc(Cl)cc1Cl`, the GI50 was 2.13 µM with A498 renal; 3.51 µM in the assay with A549 NSCLC; 1.4 µM in the assay on HOP-92 NSCLC; 2.73 µM in the assay with MCF7 breast; 2.35 µM in the assay on MOLT-4 leukemia; 2.59 µM in the assay on NCI/ADR-RES ovarian. In addition, the GI50 is 3.69 µM with SK-MEL-28 melanoma and 2.92 µM with U251 CNS. For the same compound, the TGI with A498 renal was found to be 6.84 µM; in the assay with A549 NSCLC, 16.1 µM; in the assay on HOP-92 NSCLC, 5.15 µM; in the assay on MCF7 breast, 13 µM; with MOLT-4 leukemia, 17.3 µM; in the assay on NCI/ADR-RES ovarian, 10.5 µM. For the same compound, the TGI was determined as 18.6 µM in the assay on SK-MEL-28 melanoma and 12 µM in the assay on U251 CNS.
As for `COc1cc(/C=C2\C(=O)Nc3ccc(Br)cc32)cc(OC)c1OC`, the GI50 is 13.7 µM in the assay with A498 renal; 10.3 µM with A549 NSCLC; 2.68 µM in the assay on HOP-92 NSCLC; 2.64 µM in the assay on MCF7 breast; 8.51 µM in the assay with MOLT-4 leukemia; 4.01 µM with NCI/ADR-RES ovarian. Besides, the GI50 in the assay with SK-MEL-28 melanoma is 58.9 µM; in the assay on U251 CNS, 7.19 µM. Besides, the TGI was over 55.8 µM in the assay with A498 renal; over 100 µM with A549 NSCLC; 24.8 µM with HOP-92 NSCLC; over 100 µM with MCF7 breast; over 100 µM in the assay on MOLT-4 leukemia; 29.4 µM with NCI/ADR-RES ovarian. For the same compound, the TGI in the assay on SK-MEL-28 melanoma was over 100 µM; in the assay with U251 CNS, 30 µM.
With `Fc1ccc(-c2cc(-c3cn[nH]c3-c3ccccn3)ccn2)cc1`, the GI50 was 24.8 µM with A498 renal; over 25 µM in the assay with A549 NSCLC; 24.6 µM in the assay on HOP-92 NSCLC; over 25 µM with MCF7 breast; over 25 µM in the assay on MOLT-4 leukemia; over 19.5 µM with NCI/ADR-RES ovarian. Moreover, the GI50 in the assay on SK-MEL-28 melanoma and in the assay with U251 CNS was over 25 µM throughout. The TGI with A498 renal, with A549 NSCLC, with HOP-92 NSCLC, in the assay with MCF7 breast, in the assay on MOLT-4 leukemia and with NCI/ADR-RES ovarian was over 25 µM each time. The TGI in the assay on SK-MEL-28 melanoma and with U251 CNS was over 25 µM each time.
For `Cc1ccc2c(C(C[N+](=O)[O-])c3ccco3)c(-c3ccccc3)[nH]c2c1` (stereo not drawn), the GI50 is 4.02 µM with A498 renal; 48.3 µM with A549 NSCLC; over 100 µM in the assay with HOP-92 NSCLC; 9.09 µM in the assay on MCF7 breast; 30.7 µM with MOLT-4 leukemia; 11.7 µM with NCI/ADR-RES ovarian. Moreover, the GI50 was 98.9 µM in the assay with SK-MEL-28 melanoma and 46.2 µM with U251 CNS. Besides, the TGI in the assay with A498 renal is 74.3 µM; in the assay with A549 NSCLC it was over 100 µM; in the assay with HOP-92 NSCLC, over 100 µM; with MCF7 breast it was over 100 µM; with MOLT-4 leukemia it was over 100 µM; with NCI/ADR-RES ovarian, over 100 µM. Moreover, the TGI in the assay with SK-MEL-28 melanoma and in the assay with U251 CNS was over 100 µM each time.
On to `CNc1ccc(N=Nc2cccc3ncccc23)cc1`, for which the TGI is over 68.4 µM in the assay with A498 renal; over 100 µM in the assay on A549 NSCLC; over 100 µM in the assay with HOP-92 NSCLC; over 100 µM with MCF7 breast; over 100 µM in the assay with MOLT-4 leukemia; over 100 µM with NCI/ADR-RES ovarian. The TGI in the assay with SK-MEL-28 melanoma and with U251 CNS was over 100 µM throughout. The GI50 is 50.9 µM in the assay with A549 NSCLC; 24.3 µM in the assay on HOP-92 NSCLC; 0.0261 µM in the assay on MCF7 breast; 14.2 µM in the assay on MOLT-4 leukemia; 23.3 µM in the assay with NCI/ADR-RES ovarian; over 100 µM in the assay on SK-MEL-28 melanoma. For the same compound, the GI50 in the assay with U251 CNS is 31.5 µM.
